Assay results: patent EP0908457B1, “3-(1,2-benzisothiazol- and isoxazol-5-Y1)-2,4(1H,3H)-pyrimidinedione or thione and 3-(1,2-benzisothiazol- and isoxazol-5-y1)-4(3H)-pyrimidinone or thione herbicidal agents” (BASF AKTIENGESELLSCHAFT, priority 1997, dated 1999)

Key:
[1] = system: Cyperus iria; assay: Preemergence weed control under flooded paddy conditions, CYPIR (Rice Flatsedge); assay type: in vivo; details: preemergence, flooded paddy; for herbicidal effect rating, CYPIR: meaning of each grade not given here
[2] = system: Monochoria vaginalis, Presl.; assay: Preemergence weed control under flooded paddy conditions, MOOVA (Monochoria); assay type: in vivo; details: preemergence, flooded paddy; for herbicidal effect rating, MOOVA: meaning of each grade not given here
[3] = system: Echinochloa oryzoides (Ard.) Fritsch.; assay: Preemergence weed control under flooded paddy conditions, ECHORC (Watergrass (Calif.)); assay type: in vivo; details: preemergence, flooded paddy; for herbicidal effect rating, ECHORC: meaning of each grade not given here
[4] = system: Oryza sativa, (L.) Tebonnet; assay: Rice tolerance to post-transplant applications under flooded paddy conditions (Example 187), ORYSAT (Rice, Tebonnet); for herbicidal effect rating ORYSAT: meaning of each grade not given here
[5] = system: Sagittaria pygmaea, L.; assay: Preemergence weed control under flooded paddy conditions, SAGPY (Arrowhead (Pygmaea)); assay type: in vivo; details: preemergence, flooded paddy; for herbicidal effect rating, SAGPY: meaning of each grade not given here
[6] = system: Cyperus serotinus, Rottb.; assay: Preemergence weed control under flooded paddy conditions, CYPSE (Flatsedge); assay type: in vivo; details: preemergence; for herbicidal effect rating, CYPSE: meaning of each grade not given here
[7] = Rate 0.0320 kg/ha, rated three to four weeks after treatment
[8] = Rate 0.0620 kg/ha, rated three to four weeks after treatment
[9] = Rate 0.1250 kg/ha, rated three to four weeks after treatment
[10] = Rate 0.2500 kg/ha, rated three to four weeks after treatment
[11] = Rate 0.5000 kg/ha, rated three to four weeks after treatment
[12] = 0.0313 kg/ha, rated three to four weeks after treatment
[13] = 0.0625 kg/ha, rated three to four weeks after treatment
[14] = 0.1250 kg/ha, rated three to four weeks after treatment
[15] = 0.2500 kg/ha, rated three to four weeks after treatment
[16] = 0.0320 kg/ha, rated three to four weeks after treatment
[17] = 0.0620 kg/ha, rated three to four weeks after treatment
[18] = Rate 0.0320 kg/ha, rated 3-4 weeks after treatment
[19] = Rate 0.0620 kg/ha, rated 3-4 weeks after treatment
[20] = Rate 0.1250 kg/ha, rated 3-4 weeks after treatment
[21] = Rate 0.2500 kg/ha, rated 3-4 weeks after treatment

With `Cn1c(C(F)(F)F)cc(=O)n(-c2ccc3snc(C(=O)NS(=O)(=O)c4cccs4)c3c2)c1=O` [Example 391, 1,2-Benzisothiazole-3-carboxamide, 5-[3,6-dihydro-3-methyl-2,6-dioxo-4-(trifluoromethyl)-1(2H)-pyrimidinyl]-N-(2-thienylsulfonyl)-] the “herbicidal effect rating, CYPIR” value [1, 7] was 3.0, the “herbicidal effect rating, CYPIR” value [1, 8] was 3.0 and the “herbicidal effect rating, CYPIR” value [1, 9] was 4.0. For the same molecule, the “herbicidal effect rating, CYPIR” value [1, 10] was 6.0, the “herbicidal effect rating, CYPIR” value [1, 11] was 9.0 and the “herbicidal effect rating, MOOVA” value [2, 7] was 6.0. The “herbicidal effect rating, MOOVA” value [2, 8] was 9.0, the “herbicidal effect rating, MOOVA” value [2, 9] was 9.0 and the “herbicidal effect rating, MOOVA” value [2, 10] was 9.0. For the same molecule, the “herbicidal effect rating, MOOVA” value [2, 11] was 9.0, the “herbicidal effect rating, ECHORC” value [3, 7] was 0.0 and the “herbicidal effect rating, ECHORC” value [3, 8] was 0.0. The “herbicidal effect rating, ECHORC” value [3, 9] was 2.0, the “herbicidal effect rating, ECHORC” value [3, 10] was 4.0 and the “herbicidal effect rating, ECHORC” value [3, 11] was 6.0. The “herbicidal effect rating ORYSAT” value [4, 7] was 2.0, the “herbicidal effect rating ORYSAT” value [4, 8] was 2.0 and the “herbicidal effect rating ORYSAT” value [4, 9] was 3.0. For the same molecule, the “herbicidal effect rating ORYSAT” value [4, 10] was 3.0, the “herbicidal effect rating ORYSAT” value [4, 11] was 3.0 and the “herbicidal effect rating, SAGPY” value [5, 7] was 6.0. The “herbicidal effect rating, SAGPY” value [5, 8] was 6.0, the “herbicidal effect rating, SAGPY” value [5, 9] was 7.0 and the “herbicidal effect rating, SAGPY” value [5, 10] was 7.0. For the same molecule, the “herbicidal effect rating, SAGPY” value [5, 11] was 9.0, the “herbicidal effect rating, CYPSE” value [6, 7] was 0.0 and the “herbicidal effect rating, CYPSE” value [6, 8] was 0.0. For the same molecule, the “herbicidal effect rating, CYPSE” value [6, 9] was 0.0, the “herbicidal effect rating, CYPSE” value [6, 10] was 0.0 and the “herbicidal effect rating, CYPSE” value [6, 11] was 3.0.

`Cc1ccc(OC(C)C)c(-c2nsc3ccc(-n4c(=O)cc(C(F)(F)F)n(C)c4=O)cc23)c1` [Example 59, 3-[3-(6-Isopropoxy-m-tolyl)-1,2-benzisothiazol-5-yl]-1-methyl-6-(trifluoromethyl)-2,4(1H,3H)-pyrimidinedione] was tested, and the “herbicidal effect rating, CYPIR” value [1, 12] was 7.0, the “herbicidal effect rating, CYPIR” value [1, 13] was 7.0 and the “herbicidal effect rating, CYPIR” value [1, 14] was 8.0. The “herbicidal effect rating, CYPIR” value [1, 15] was 9.0, the “herbicidal effect rating, MOOVA” value [2, 12] was 9.0 and the “herbicidal effect rating, MOOVA” value [2, 13] was 9.0. The “herbicidal effect rating, MOOVA” value [2, 14] was 9.0, the “herbicidal effect rating, MOOVA” value [2, 15] was 9.0 and the “herbicidal effect rating, ECHORC” value [3, 12] was 9.0. For the same molecule, the “herbicidal effect rating, ECHORC” value [3, 13] was 9.0, the “herbicidal effect rating, ECHORC” value [3, 14] was 9.0 and the “herbicidal effect rating, ECHORC” value [3, 15] was 9.0. The “herbicidal effect rating, ORYSAT (rice tolerance)” value (“herbicidal effect rating, ORYSAT” for short) [4, 12] was 2.0, the “herbicidal effect rating, ORYSAT” value [4, 13] was 3.0 and the “herbicidal effect rating, ORYSAT” value [4, 14] was 4.0. For the same molecule, the “herbicidal effect rating, ORYSAT” value [4, 15] was 4.0, the “herbicidal effect rating, SAGPY” value [5, 12] was 0.0 and the “herbicidal effect rating, SAGPY” value [5, 13] was 0.0. The “herbicidal effect rating, SAGPY” value [5, 14] was 0.0, the “herbicidal effect rating, SAGPY” value [5, 15] was 0.0 and the “herbicidal effect rating, CYPSE” value [6, 12] was 0.0. For the same molecule, the “herbicidal effect rating, CYPSE” value [6, 13] was 0.0, the “herbicidal effect rating, CYPSE” value [6, 14] was 0.0 and the “herbicidal effect rating, CYPSE” value [6, 15] was 0.0.

For `Cn1c(C(F)(F)F)cc(=O)n(-c2ccc3snc(C(=O)NS(=O)(=O)/C=C/c4ccccc4)c3c2)c1=O` [Example 501, 1,2-Benzisothiazole-3-carboxamide, 5-[3,6-dihydro-3-methyl-2,6-dioxo-4-(trifluoromethyl)-1(2H)-pyrimidinyl]-N-(styrylsulfonyl)-, (E)-], the CYPIR herbicidal rating [1, 16] was 0.0, the CYPIR herbicidal rating [1, 17] was 2.0 and the CYPIR herbicidal rating [1, 14] was 4.0. For the same molecule, the CYPIR herbicidal rating [1, 15] was 6.0, the MOOVA herbicidal rating [2, 16] was 6.0 and the MOOVA herbicidal rating [2, 17] was 6.0. The MOOVA herbicidal rating [2, 14] was 7.0, the MOOVA herbicidal rating [2, 15] was 9.0 and the ECHORC herbicidal rating [3, 16] was 4.0. For the same molecule, the ECHORC herbicidal rating [3, 17] was 5.0, the ECHORC herbicidal rating [3, 14] was 5.0 and the ECHORC herbicidal rating [3, 15] was 7.0. For the same molecule, the “ORYSAT herbicidal rating (rice tolerance)” value (“ORYSAT herbicidal rating” for short) [4, 16] was 0.0, the “ORYSAT herbicidal rating” value [4, 17] was 1.0 and the “ORYSAT herbicidal rating” value [4, 14] was 3.0. For the same molecule, the “ORYSAT herbicidal rating” value [4, 15] was 4.0, the SAGPY herbicidal rating [5, 16] was 2.0 and the SAGPY herbicidal rating [5, 17] was 3.0. The SAGPY herbicidal rating [5, 14] was 5.0, the SAGPY herbicidal rating [5, 15] was 6.0 and the CYPSE herbicidal rating [6, 16] was 0.0. The CYPSE herbicidal rating [6, 17] was 0.0, the CYPSE herbicidal rating [6, 14] was 3.0 and the CYPSE herbicidal rating [6, 15] was 5.0.

In the case of `CSCCCCOC(=O)COc1ccc(C)cc1-c1nsc2ccc(-n3c(=O)cc(C(F)(F)F)n(C)c3=O)cc12` [Example 518, Acetic acid, {{2-{5-[3,6-dihydro-3-methyl-2,6-dioxo-4-(trifluoromethyl)-1(2H)-pyrimidinyl]-1,2-benzisothiazol-3-yl}-p-tolyl}oxy}-, 4-(methylthio)butyl ester], the “herbicidal effect rating, CYPIR” value [1, 18] is reported as 0.0, the “herbicidal effect rating, CYPIR” value [1, 19] is reported as 2.0 and the “herbicidal effect rating, CYPIR” value [1, 20] is reported as 2.0. For the same molecule, the “herbicidal effect rating, CYPIR” value [1, 21] was 4.0, the “herbicidal effect rating, MOOVA” value [2, 18] was 4.0 and the “herbicidal effect rating, MOOVA” value [2, 19] was 7.0. For the same molecule, the “herbicidal effect rating, MOOVA” value [2, 20] was 9.0, the “herbicidal effect rating, MOOVA” value [2, 21] was 9.0 and the “herbicidal effect rating, ECHORC” value [3, 18] was 0.0. The “herbicidal effect rating, ECHORC” value [3, 19] was 2.0, the “herbicidal effect rating, ECHORC” value [3, 20] was 4.0 and the “herbicidal effect rating, ECHORC” value [3, 21] was 7.0. The “herbicidal effect rating ORYSAT” value [4, 18] was 1.0, the “herbicidal effect rating ORYSAT” value [4, 19] was 2.0 and the “herbicidal effect rating ORYSAT” value [4, 20] was 4.0. For the same molecule, the “herbicidal effect rating ORYSAT” value [4, 21] was 4.0, the “herbicidal effect rating, SAGPY” value [5, 18] was 0.0 and the “herbicidal effect rating, SAGPY” value [5, 19] was 0.0. The “herbicidal effect rating, SAGPY” value [5, 20] was 0.0, the “herbicidal effect rating, SAGPY” value [5, 21] was 0.0 and the “herbicidal effect rating, CYPSE” value [6, 18] was 0.0. The “herbicidal effect rating, CYPSE” value [6, 19] was 0.0, the “herbicidal effect rating, CYPSE” value [6, 20] was 0.0 and the “herbicidal effect rating, CYPSE” value [6, 21] was 0.0.
